{"source": "BindingDB's records for doi:10.1021/jm000290u", "about": "(Purdue University, 2001)", "molecular_target": "Human immunodeficiency virus 2", "experiment": "In vitro inhibition of cytopathic effect was determined against HIV-2 ROD in MT-4 cells using MTT cytoprotection assay"}
{"smiles": "CC(C)CCCC(C)[C@H]1CCC2C3CCC4C[C@@H](CCC=C(c5cc(Cl)c(O)c(C(=O)N[C@@H](CC(=O)O)C(=O)O)c5)c5cc(Cl)c(O)c(C(=O)N[C@@H](CC(=O)O)C(=O)O)c5)CC[C@]4(C)C3CC[C@@]21C", "note": "(stereo partly drawn) [(S)-2-(3-Chloro-5-{1-[3-chloro-5-((S)-1,2-dicarboxy-ethylcarbamoyl)-4-hydroxy-phenyl]-4-[(3S,10S,13R,17R)-17-(1,5-dimethyl-hexyl)-10,13-dimethyl-hexadecahydro-cyclopenta[a]phenanthren-3-yl]-but-1-enyl}-2-hydroxy-benzoylamino)-succinic acid]", "values": [{"measurement": "EC50", "result": 122, "unit": "µM"}]}
{"smiles": "CC(C)CCCC(C)[C@H]1CCC2C3CCC4C[C@@H](CCC=C(c5cc(Cl)c(OCc6cccc(C(=O)O)c6)c(C(=O)O)c5)c5cc(Cl)c(OCc6cccc(C(=O)O)c6)c(C(=O)O)c5)CC[C@]4(C)C3CC[C@@]21C", "note": "(stereo not given in full) [Cosalane analogue]", "values": [{"measurement": "EC50", "result": "> 29", "unit": "µM"}]}
{"smiles": "CC(C)CCCC(C)[C@H]1CCC2C3CCC4C[C@@H](CCC=C(c5cc(Cl)c(O)c(C(=O)NCCC(=O)O)c5)c5cc(Cl)c(O)c(C(=O)NCCC(=O)O)c5)CC[C@]4(C)C3CC[C@@]21C", "note": "(stereo not given in full) [3-(5-{1-[3-(2-Carboxy-ethylcarbamoyl)-5-chloro-4-hydroxy-phenyl]-4-[17-(1,5-dimethyl-hexyl)-10,13-dimethyl-hexadecahydro-cyclopenta[a]phenanthren-3-yl]-but-1-enyl}-3-chloro-2-hydroxy-benzoylamino)-propionic acid]", "values": [{"measurement": "EC50", "result": 120, "unit": "µM"}]}
{"smiles": "CC(C)CCCC(C)[C@H]1CCC2C3CCC4C[C@@H](CCC=C(c5cc(Cl)c(OCc6ccc(CC(=O)O)cc6)c(C(=O)O)c5)c5cc(Cl)c(OCc6ccc(CC(=O)O)cc6)c(C(=O)O)c5)CC[C@]4(C)C3CC[C@@]21C", "note": "(stereo partly drawn) [3'',3'''-Dichloro-5'',5'''-dicarboxy-4'',4'''-di[p-(carboxymethyl)benzyloxy]-4',4'-diphenyl-3beta-(3'-buten-1-yl)cholestane]", "values": [{"measurement": "EC50", "result": 83.8, "unit": "µM"}]}
{"smiles": "CC(C)CCCC(C)[C@H]1CCC2C3CCC4C[C@@H](CCCC(c5cc(Cl)c(OCc6ccc(C(=O)O)cc6)c(C(=O)O)c5)c5cc(Cl)c(OCc6ccc(C(=O)O)cc6)c(C(=O)O)c5)CC[C@]4(C)C3CC[C@@]21C", "note": "(stereo partly drawn) [3'',3'''-Dichloro-5'',5'''-dicarboxy-4'',4'''-di[p-carboxybenzyloxy]-4',4'-diphenyl-3beta-(1-butyl)cholestane]", "values": [{"measurement": "EC50", "result": 70.4, "unit": "µM"}]}
{"smiles": "CC(C)CCCC(C)[C@H]1CCC2C3CCC4C[C@@H](CCC=C(c5cc(Cl)c(OCc6ccc(C(=O)O)cc6)c(C(=O)O)c5)c5cc(Cl)c(OCc6ccc(C(=O)O)cc6)c(C(=O)O)c5)CC[C@]4(C)C3CC[C@@]21C", "note": "(stereo not given in full) [Cosalane analogue]", "values": [{"measurement": "EC50", "result": 22, "unit": "µM"}]}
{"smiles": "CC(C)CCCC(C)[C@H]1CCC2C3CCC4C[C@@H](CCC=C(c5cc(Cl)c(O)c(C(=O)N[C@@H](Cc6ccccc6)C(=O)O)c5)c5cc(Cl)c(O)c(C(=O)N[C@@H](Cc6ccccc6)C(=O)O)c5)CC[C@]4(C)C3CC[C@@]21C", "note": "(stereo partly drawn) [2-(5-{1-{3-[1-carboxy-2-phenyl-(1S)-ethylcarbamoyl]-5-chloro-4-hydroxyphenyl}-4-[1-(1,5-dimethylhexyl)-9a,11a-dimethylperhydrocyclopenta[a]phenanthren-7-yl]-1-butenyl}-3-chloro-2-hydroxyphenylcarboxamido)-3-phenyl-(2S)-propanoic acid]", "values": [{"measurement": "EC50", "result": "> 62", "unit": "µM"}]}
{"smiles": "CC(C)CCCC(C)[C@H]1CCC2C3CCC4C[C@@H](CCC=C(c5cc(Cl)c(O)c(C(=O)N[C@@H](CCC(=O)O)C(=O)O)c5)c5cc(Cl)c(O)c(C(=O)N[C@@H](CCC(=O)O)C(=O)O)c5)CC[C@]4(C)C3CC[C@@]21C", "note": "(stereo not given in full) [2-(3-Chloro-5-{1-[3-chloro-5-(1,3-dicarboxy-propylcarbamoyl)-4-hydroxy-phenyl]-4-[17-(1,5-dimethyl-hexyl)-10,13-dimethyl-hexadecahydro-cyclopenta[a]phenanthren-3-yl]-but-1-enyl}-2-hydroxy-benzoylamino)-pentanedioic acid]", "values": [{"measurement": "EC50", "result": 69.6, "unit": "µM"}]}
{"smiles": "COc1c(Cl)cc(Cc2cc(C(=CCC[C@H]3CC[C@@]4(C)C(CCC5C4CC[C@@]4(C)C5CC[C@@H]4C(C)CCCC(C)C)C3)c3cc(Cc4cc(Cl)c(OC)c(C(=O)O)c4)c(OC)c(C(=O)O)c3)cc(C(=O)O)c2OC)cc1C(=O)O", "note": "(stereo not given in full) [Cosalane analogue]", "values": [{"measurement": "EC50", "result": 19.9, "unit": "µM"}]}
{"smiles": "CC(C)CCCC(C)[C@H]1CCC2C3CCC4C[C@@H](CCCC(c5cc(Cl)c(O)c(C(=O)N[C@@H](CCC(=O)O)C(=O)O)c5)c5cc(Cl)c(O)c(C(=O)N[C@@H](CCC(=O)O)C(=O)O)c5)CC[C@]4(C)C3CC[C@@]21C", "note": "(stereo not given in full) [2-(3-Chloro-5-{1-[3-chloro-5-(1,3-dicarboxy-propylcarbamoyl)-4-hydroxy-phenyl]-4-[17-(1,5-dimethyl-hexyl)-10,13-dimethyl-hexadecahydro-cyclopenta[a]phenanthren-3-yl]-butyl}-2-hydroxy-benzoylamino)-pentanedioic acid]", "values": [{"measurement": "EC50", "result": 73, "unit": "µM"}]}
{"smiles": "CC(C)CCCC(C)[C@H]1CCC2C3CCC4C[C@@H](CCC=C(c5cc(Cl)c(OCc6ccc(-c7cccc(C(=O)O)c7)cc6)c(C(=O)O)c5)c5cc(Cl)c(OCc6ccc(-c7cccc(C(=O)O)c7)cc6)c(C(=O)O)c5)CC[C@]4(C)C3CC[C@@]21C", "note": "(stereo partly drawn) [3'',3'''-Dichloro-5'',5'''-dicarboxy-4'',4'''-di[p-(3-carboxy-phenyl)benzyloxy]-4',4'-diphenyl-3beta-(3'-buten-1-yl)cholestane]", "values": [{"measurement": "EC50", "result": "> 95", "unit": "µM"}]}
{"smiles": "COc1ccc(C(=O)Nc2cc(C(=CCC[C@H]3CC[C@@]4(C)C(CCC5C4CC[C@@]4(C)C5CC[C@@H]4C(C)CCCC(C)C)C3)c3cc(NC(=O)c4ccc(OC)c(C(=O)O)c4)c(OC)c(C(=O)O)c3)cc(C(=O)O)c2OC)cc1C(=O)O", "note": "(stereo not given in full) [Cosalane analogue]", "values": [{"measurement": "EC50", "result": "> 66", "unit": "µM"}]}
{"smiles": "CC(C)CCCC(C)[C@H]1CCC2C3CCC4C[C@@H](CCC=C(c5cc(Cl)c(OCc6ccccc6C(=O)O)c(C(=O)O)c5)c5cc(Cl)c(OCc6ccccc6C(=O)O)c(C(=O)O)c5)CC[C@]4(C)C3CC[C@@]21C", "note": "(stereo not given in full) [Cosalane analogue]", "values": [{"measurement": "EC50", "result": "> 37", "unit": "µM"}]}
{"smiles": "CC(C)CCCC(C)[C@H]1CCC2C3CCC4C[C@@H](CCC=C(c5cc(Cl)c(O)c(C(=O)O)c5)c5cc(Cl)c(O)c(C(=O)O)c5)CC[C@]4(C)C3CC[C@@]21C", "note": "(stereo partly drawn) [5-{1-(3-carboxy-5-chloro-4-hydroxyphenyl)-4-[1-(1,5-dimethylhexyl)-9a,11a-dimethyl-(9aS,11aR)-perhydrocyclopenta[a]phenanthren-7-yl]-1-butenyl}-3-chloro-2-hydroxybenzoic acid]", "values": [{"measurement": "EC50", "result": 4, "unit": "µM"}]}
{"smiles": "CC(C)CCCC(C)[C@H]1CCC2C3CCC4C[C@@H](CCC=C(c5cc(Cl)c(OCc6ccc(-c7ccc(C(=O)O)cc7)cc6)c(C(=O)O)c5)c5cc(Cl)c(OCc6ccc(-c7ccc(C(=O)O)cc7)cc6)c(C(=O)O)c5)CC[C@]4(C)C3CC[C@@]21C", "note": "(stereo partly drawn) [3'',3'''-Dichloro-5'',5'''-dicarboxy-4'',4'''-di[p-(4-carboxy-phenyl)benzyloxy]-4',4'-diphenyl-3beta-(3'-buten-1-yl)cholestane]", "values": [{"measurement": "EC50", "result": "> 100", "unit": "µM"}]}
